Laboratory results published in patent US8933028B2, “Use of selective estrogen receptor modulator for joint fusion and other repair or healing of connective tissue” (priority 2010, dated 2015).
“Also recorded” adds a separate entry of the source.

What was measured:
[1] = test system: bone; details: postmenopausal women, compared with estrogen; cited from earlier work
[2] = test system: osteoblastic cells; details: cited from earlier work
[3] = test system: sacroiliac joint; test: Effect of oral raloxifene on bone healing after sacroiliac joint fusion with BMP-2; assay type: in vivo, human
From the text: The patients involved in the study were female at age of over 60 years old.

[4] = test system: endogenous BMP-2; details: primarily on the α-estrogen receptor; cited from earlier work
[5] = cited from earlier work
[6] = test system: fracture healing; details: primates; cited from earlier work
[7] = test system: tendon to bone healing; details: rat model; cited from earlier work
[8] = raloxifene therapy for osteoporosis

O=C(c1ccc(OCCN2CCCCC2)cc1)c1c(-c2ccc(O)cc2)sc2cc(O)ccc12 [raloxifene]
activation frequency, bone formation rate or bone volume [1]: did not decrease | effect on TNF-α induced apoptosis [2]: anti-apoptotic effect | bone healing or bone graft incorporation versus raloxifene immediately following surgery ([3]; delayed raloxifene administration): not as complete | recovery versus control patients with BMP-2 only ([3]; delayed raloxifene administration, some patients): superior recovery results | bone healing / maturity of bone ([3]; females over 60, raloxifene 60 mg/day orally for three months after surgery, BMP-2 at surgery in all patients): Significant improvement | bone graft incorporation into host bone (images) ([3]; females over 60, three months after surgery, BMP-2 at surgery in all patients, FIGS. 5-7): improved incorporation; also recorded: fully healed and incorporated | fusion result compared with patient who received BMP-2 without raloxifene ([3]; postmenopausal women, local BMP-2 and oral raloxifene, three months): better than normal healing | effect on endogenous BMP-2 (potentiation / secretion) [4]: similar | stimulation of the uterus or breasts [5, 8]: does not stimulate | tolerability [5, 8]: well tolerated | occurrence of uterine bleeding, thrombophlebitis, breast abnormalities, or increased endometrial thickness ([5]; raloxifene treated groups versus control): no differences among groups

FGF-2: fibroblast growth factor-2, likely potent bone anabolic agent
fracture healing [6]: accelerates fracture healing and prevents nonunion

estrogen
effect on endogenous BMP-2 (potentiation / secretion) [4]: direct measurable effect

B1: rhPTH: Recombinant Human Parathyroid Hormone (protein, UniProt P01270 32-115, looked up)
Parathyroid hormone: SVSEIQLMHNLGKHLNSMERVEWLRKKLQDVHNFVALGAPLAPRDAGSQRPRKKEDNVLVESHEKSLGEADKADVNVLTKAKSQ
modifications: Parathyroid hormone
tendon repair and tendon qualities [7]: improved
